Results from PubChem BioAssay (NCI).
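GI50 is the concentration that inhibits growth by half. TGI: concentration producing complete growth inhibition.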

What was measured:
Assay in all cases: growth of human tumour cells (NCI), 384-well format
[1] = tested on: 786-0 renal
[2] = tested on: A498 renal
[3] = tested on: A549 NSCLC
[4] = tested on: ACHN renal
[5] = tested on: BT-549 breast
[6] = tested on: CAKI-1 renal
[7] = tested on: COLO 205 colon
[8] = tested on: EKVX NSCLC
[9] = tested on: HCC-2998 colon
[10] = tested on: HCT-116 colon
[11] = tested on: HCT-15 colon
[12] = tested on: HL-60(TB) leukemia
[13] = tested on: HOP-62 NSCLC
[14] = tested on: HOP-92 NSCLC
[15] = tested on: HS 578T breast
[16] = tested on: HT29 colon
[17] = tested on: IGROV1 ovarian
[18] = tested on: KM12 colon
[19] = tested on: LOX IMVI melanoma
[20] = tested on: MCF7 breast
[21] = tested on: MDA-MB-231 breast
[22] = tested on: MOLT-4 leukemia
[23] = tested on: NCI-H23 lung
[24] = tested on: NCI-H322M lung
[25] = tested on: NCI-H460 NSCLC
[26] = tested on: NCI-H522 lung
[27] = tested on: OVCAR-3 ovarian
[28] = tested on: OVCAR-4 ovarian
[29] = tested on: OVCAR-5 ovarian
[30] = tested on: PC-3 prostate
[31] = tested on: RPMI-8226 leukemia
[32] = tested on: RXF 393 renal
[33] = tested on: SF-268 CNS
[34] = tested on: SF-295 CNS
[35] = tested on: SF-539 CNS
[36] = tested on: SK-MEL-28 melanoma
[37] = tested on: SK-MEL-5 melanoma
[38] = tested on: SK-OV-3 ovarian
[39] = tested on: SN12C renal
[40] = tested on: SNB-19 CNS
[41] = tested on: SNB-75 CNS
[42] = tested on: SR leukemia
[43] = tested on: SW-620 colon
[44] = tested on: T-47D breast
[45] = tested on: TK-10 renal
[46] = tested on: UACC-62 melanoma
[47] = tested on: UO-31 renal

`C[C@@H](c1ccc2nccn2c1)n1nnc2ncc(-c3cnn(C)c3)nc21` was tested, and the GI50 [1] was greater than 100 µM, the TGI [1] was greater than 100 µM and the GI50 [2] was greater than 100 µM. It also gave a TGI [2] greater than 100 µM, a GI50 [3] greater than 100 µM and a TGI [3] greater than 100 µM. For the same molecule, the GI50 [4] was greater than 100 µM, the TGI [4] was greater than 100 µM and the GI50 [5] was greater than 100 µM. The TGI [5] was greater than 100 µM, the GI50 [6] was greater than 51.5 µM and the TGI [6] was greater than 100 µM. For the same molecule, the GI50 [7] was greater than 100 µM, the TGI [7] was greater than 100 µM and the GI50 [8] was greater than 100 µM. For the same molecule, the TGI [8] was greater than 100 µM, the GI50 [9] was greater than 100 µM and the TGI [9] was greater than 100 µM. It also gave a GI50 [10] greater than 100 µM, a TGI [10] greater than 100 µM and a GI50 [11] greater than 100 µM. It also gave a TGI [11] greater than 100 µM, a GI50 [12] greater than 92.2 µM and a TGI [12] greater than 100 µM. For the same molecule, the GI50 [13] was greater than 92.4 µM, the TGI [13] was greater than 100 µM and the GI50 [14] was greater than 100 µM. For the same molecule, the TGI [14] was greater than 100 µM, the GI50 [15] was greater than 100 µM and the TGI [15] was greater than 100 µM. The GI50 [16] was greater than 100 µM, the TGI [16] was greater than 100 µM and the GI50 [17] was greater than 100 µM. The TGI [17] was greater than 100 µM, the GI50 [18] was 35 µM and the TGI [18] was greater than 100 µM. It also gave a GI50 [19] greater than 65.9 µM, a TGI [19] greater than 100 µM and a GI50 [20] greater than 100 µM. For the same molecule, the TGI [20] was greater than 100 µM, the GI50 [21] was greater than 100 µM and the TGI [21] was greater than 100 µM. For the same molecule, the GI50 [22] was 51.5 µM, the TGI [22] was greater than 100 µM and the GI50 [23] was 20.6 µM. For the same molecule, the TGI [23] was greater than 100 µM, the GI50 [24] was greater than 100 µM and the TGI [24] was greater than 100 µM. The GI50 [25] was greater than 100 µM, the TGI [25] was greater than 100 µM and the GI50 [26] was greater than 75.5 µM. It also gave a TGI [26] greater than 100 µM, a GI50 [27] greater than 100 µM and a TGI [27] greater than 100 µM. The GI50 [28] was greater than 94.4 µM, the TGI [28] was greater than 100 µM and the GI50 [29] was greater than 100 µM. The TGI [29] was greater than 100 µM, the GI50 [30] was greater than 100 µM and the TGI [30] was greater than 100 µM. For the same molecule, the GI50 [31] was greater than 68.8 µM, the TGI [31] was greater than 100 µM and the GI50 [32] was greater than 75.4 µM. For the same molecule, the TGI [32] was greater than 100 µM, the GI50 [33] was greater than 100 µM and the TGI [33] was greater than 100 µM. It also gave a GI50 [34] of 25.2 µM, a TGI [34] greater than 100 µM and a GI50 [35] greater than 100 µM. For the same molecule, the TGI [35] was greater than 100 µM, the GI50 [36] was greater than 100 µM and the TGI [36] was greater than 100 µM. The GI50 [37] was greater than 92.7 µM, the TGI [37] was greater than 100 µM and the GI50 [38] was greater than 100 µM. The TGI [38] was greater than 100 µM, the GI50 [39] was greater than 63 µM and the TGI [39] was greater than 100 µM. It also gave a GI50 [40] greater than 100 µM, a TGI [40] greater than 100 µM and a GI50 [41] greater than 76.8 µM. For the same molecule, the TGI [41] was greater than 100 µM, the GI50 [42] was 43.3 µM and the TGI [42] was greater than 100 µM. The GI50 [43] was greater than 100 µM, the TGI [43] was greater than 100 µM and the GI50 [44] was greater than 61.2 µM. The TGI [44] was greater than 100 µM, the GI50 [45] was greater than 100 µM and the TGI [45] was greater than 100 µM. It also gave a GI50 [46] greater than 100 µM, a TGI [46] greater than 100 µM and a GI50 [47] greater than 100 µM. The TGI [47] was greater than 100 µM.
